Laboratory results as given in patent US20220213198A1, “METHOD OF TREATMENT” (The Council of the Queensland Institute of Medical Research, priority 2019, published 2022).

Legend:
B16F10 cells = assay: B16F10 proliferative and migratory assays in vitro; format: cell-based, mouse; settings: co-culture of B16F10 with ligand
MAIT cells = assay: Ex vivo MAIT cell activation and cytokine profile in tumor-bearing lungs; design: species or system mouse; settings: lungs of mice injected with treated vs DMSO-treated B16F10, day 5
Protocol: FIG. 4. Upregulation of MR1 on B16F10 activates MAIT cells to suppress NK cell effector function through IL-17. (A) Schematic to analyze MAIT or NK cell effector function in the lungs of C57BL/6 WT or MR1^−/− mice injected with 5-OP-RU- or DMSO-stimulated B16F10 melanoma cells. On day 5 relative to tumor inoculation, lungs were harvested and stimulated with PMA/ionomycin plus protein transport inhibitors for 4 hours and MAIT or NK cell function was assessed by flow cytometry. (B) The proportion of CD69^+ MAIT cells amongst total MAIT cells (B220^− F4/80^− MR1-5-OP-RU tetramer^+ TCRβ^+) in naïve or tumor-bearing lungs. Data presented as mean±SEM. (C) Representative dot plot of IL-17 expression by MAIT cells. The (D) proportion of IL-17^+ MAIT cells amongst total MAIT cells in the lungs of naïve and tumor-bearing mice as indicated. Data presented as mean±SEM. (E) Representative dot plot of TNF expression by MAIT cells. The (F) proportion of TNF MAIT cells and (G) IFNγ^+ MAIT cells amongst total MAIT cells in the lungs of naïve and tumor-bearing mice as indicated. (H, I) On day 5 relative to tumor inoculation, lungs were harvested (n=6/group) and stimulated with PMA/ionomycin plus protein transport inhibitors for 3 hours and NK cell function was assessed by flow cytometry. The proportion of IFNγ^+ NK cells and CD107a^+ NK cells amongst total NK cells (NKp46^+ NK1.1^+ TCRβ^− CD45.2^+) in tumor-bearing C57BL/6 WT or IL-17^−/− mice. Data presented as mean±SEM. (J) Groups of WT or MR1^−/− mice (n=4-6/group) were injected i.v. with 1×10^5 B16F10 melanoma cells. In some groups, sorted MAIT cells (2×10^5 cells/mouse) from C57BL/6 WT or IL-17A^−/− mice were i.v. injected into the indicated groups of mice one day before tumor inoculation. On day 14 relative to tumor cell inoculation, lungs were harvested and the metastatic burden was quantified by counting colonies on the lung surface. […] Significant differences between groups as indicated by crossbars were determined using a one-way ANOVA followed by Tukey's post-hoc test (B, D, F, J), or a Mann-Whitney test (H, I), *p<0.05, **p<0.01, ***p<0.001, ****p<0.0001.
Naïve or tumor-bearing lung single-cell suspensions were generated as previously described (Blake et al., 2016) and incubated with anti-CD16/32 (2.4G2) to block Fc receptors on ice prior to surface staining with the antibodies. […] All data were collected on a Fortessa 4 flow cytometer (BD Biosciences) and analyzed with FlowJo v10 software (TreeStar, Inc.).
Single cell suspensions from lungs of the indicated groups were incubated in a 96-well U-bottom plate in complete RPMI 1640 media. […] Briefly, anti-CD107a (1D4B, BioLegend) antibody was added to single cell suspension during the stimulation period before these cells were surface stained and analyzed by flow cytometry.

NK cells = assay: Ex vivo NK cell effector function in tumor-bearing lungs (IFNγ, CD107a); design: species or system mouse
Protocol: FIG. 3. Upregulation of surface MR1 on tumor cells suppresses NK cell function through MAIT cells. (A) Schematic to analyze NK effector function in the lungs of C57BL/6 WT or MR1^−/− mice injected with 5-OP-RU-pulsed B16F10 or LWT1 cells. On day 5 relative to tumor inoculation, lungs were harvested from the indicated groups of mice (n=5-6/group) and stimulated with PMA/ionomycin plus protein transport inhibitors and NK cell effector function was assessed by flow cytometry. (B) Representative contour plots of IFNγ staining in NK cells (NKp46^+ NK1.1^+ TCRβ^− CD45.2^+) and (C) the proportion and MFI of IFNγ^+ NK cells amongst total NK cells in B16F10-bearing lungs. (D) Representative contour plots of CD107a staining in NK cells and (E) the proportion and MFI of CD107a^+ NK cells amongst total NK cells in B16F10 tumor-bearing lungs. (F) Representative contour plots of IFNγ staining in NK cells and (G) the proportion and MFI of IFNγ^+ NK cells amongst total NK cells in LWT1 tumor-bearing lungs. (H) Representative contour plots of CD107a staining in NK cells and (I) the proportion and MFI of CD107a^+ NK cells amongst total NK cells in the LWT1-bearing lungs. Data presented as mean±SEM. Significant differences between groups as indicated by crossbars were determined using a one-way ANOVA followed by Tukey's post-hoc test, *p<0.05, **p<0.01, ***p<0.001, ****p<0.0001.
FIG. 4. Upregulation of MR1 on B16F10 activates MAIT cells to suppress NK cell effector function through IL-17. (A) Schematic to analyze MAIT or NK cell effector function in the lungs of C57BL/6 WT or MR1^−/− mice injected with 5-OP-RU- or DMSO-stimulated B16F10 melanoma cells. On day 5 relative to tumor inoculation, lungs were harvested and stimulated with PMA/ionomycin plus protein transport inhibitors for 4 hours and MAIT or NK cell function was assessed by flow cytometry. (B) The proportion of CD69^+ MAIT cells amongst total MAIT cells (B220^− F4/80^− MR1-5-OP-RU tetramer^+ TCRβ^+) in naïve or tumor-bearing lungs. Data presented as mean±SEM. (C) Representative dot plot of IL-17 expression by MAIT cells. The (D) proportion of IL-17^+ MAIT cells amongst total MAIT cells in the lungs of naïve and tumor-bearing mice as indicated. Data presented as mean±SEM. (E) Representative dot plot of TNF expression by MAIT cells. The (F) proportion of TNF MAIT cells and (G) IFNγ^+ MAIT cells amongst total MAIT cells in the lungs of naïve and tumor-bearing mice as indicated. (H, I) On day 5 relative to tumor inoculation, lungs were harvested (n=6/group) and stimulated with PMA/ionomycin plus protein transport inhibitors for 3 hours and NK cell function was assessed by flow cytometry. The proportion of IFNγ^+ NK cells and CD107a^+ NK cells amongst total NK cells (NKp46^+ NK1.1^+ TCRβ^− CD45.2^+) in tumor-bearing C57BL/6 WT or IL-17^−/− mice. Data presented as mean±SEM. (J) Groups of WT or MR1^−/− mice (n=4-6/group) were injected i.v. with 1×10^5 B16F10 melanoma cells. In some groups, sorted MAIT cells (2×10^5 cells/mouse) from C57BL/6 WT or IL-17A^−/− mice were i.v. injected into the indicated groups of mice one day before tumor inoculation. On day 14 relative to tumor cell inoculation, lungs were harvested and the metastatic burden was quantified by counting colonies on the lung surface. Data presented as mean±SEM. Data pooled from two independent experiments for (B, D, F, G). Experiments were performed once for (H-K). Significant differences between groups as indicated by crossbars were determined using a one-way ANOVA followed by Tukey's post-hoc test (B, D, F, J), or a Mann-Whitney test (H, I), *p<0.05, **p<0.01, ***p<0.001, ****p<0.0001.
Single cell suspensions from lungs of the indicated groups were incubated in a 96-well U-bottom plate in complete RPMI 1640 media. Cells were incubated in the presence or absence of cell stimulation cocktail (PMA/ionomycin) plus protein transport inhibitors (Golgistop and Golgiplug) (1000 times dilution) for 3-4 hours as indicated. […]

Compound: CC(=O)C=Nc1c(NC[C@H](O)[C@H](O)[C@H](O)CO)[nH]c(=O)[nH]c1=O [5-OP-RU]
- B16F10 biology as measured by proliferative or migratory assays (B16F10 cells): did not alter the biology of these cells
- proportion of MAIT cells producing IFNγ (MAIT cells): did not change
- proportion of MAIT cells that expressed CD69 (MAIT cells): increased proportion
- proportion of MAIT cells that expressed IL-17A (MAIT cells): increased proportion
- proportion of MAIT cells that expressed TNF (MAIT cells): increased proportion
- proportions of IFNγ producing and CD107a expressing NK cells (NK cells; IL-17A-/- mice, treated vs DMSO-treated B16F10, day 5): this reduction was not observed
- NK cell effector function (NK cells; MR1-/- mice that received treated LWT1): did not manifest
- NK cell effector function (NK cells; WT mice that received treated LWT1): suppression of NK cell effector function was observed
- NK cell function (NK cells; lungs of MR1-/- mice, treated vs DMSO-treated B16F10, day 5): not suppressed
- proportions of NK cells producing IFNγ and MFI (NK cells; lungs of WT mice bearing treated vs DMSO-treated B16F10, day 5): significantly decreased
- proportions of NK cells expressing CD107a and expression levels (NK cells; lungs of WT mice, treated vs DMSO-treated B16F10, day 5): significantly decreased
